Experimental findings from ChEMBL document CHEMBL1128096, “Gamma-lactams and related compounds as cholesterol absorption inhibitors: homologs of the beta-lactam cholesterol absorption inhibitor SCH 484611” (1995) are described below.

Activity calls are given as the source filed them. The calls are words filed in the database; no cut-off is given here.

One test concerns Cricetinae gen. sp. Nature of the test: Tested for ability to reduce liver cholesterol ester (L/CE) levels in the cholesterol fed hamster model at a dose of 10 mg/kg. In kind it is functional, Cricetulus griseus.
Conditions: not given
With `COc1ccc([C@@H]2[C@H](CCCc3ccccc3)C(=O)N2c2ccc(OC)cc2)cc1`, the L/CE was found to be 69%. On the same count and under the same terms, for `COc1ccc([C@@H]2[C@@H](CCCc3ccccc3)C(=O)N2c2ccc(OC)cc2)cc1` [SCH-48461] the value was 93%.

Another test deals with Cricetinae gen. sp. As to the kind of experiment: Ability to reduce liver cholesterol ester (L/CE) levels in the cholesterol fed hamster model at a dose of 50 mg/k.
Conditions: not given
In kind it is functional, Cricetulus griseus.
In turn, `COc1ccc([C@@H]2[C@@H](CCCCc3ccccc3)CC(=O)N2c2ccc(OC)cc2)cc1` registered a L/CE of 52%.

In the case of `COc1ccc([C@@H]2[C@@H](CCCc3ccccc3)OC(=O)N2c2ccccc2)cc1`, the L/CE was 47%. In turn, `COc1ccc([C@@H]2[C@@H](CCCc3ccccc3)CC(=O)N2c2ccc(OC)cc2)cc1` showed a L/CE of 12%. The same measure, in the same setting: next, `COc1ccc([C@@H]2[C@@H](CCCc3ccccc3)S(=O)(=O)N2c2ccccc2)cc1`: 51%; `COc1ccc([C@@H]2[C@H](CCc3ccccc3)CC(=O)N2c2ccc(OC)cc2)cc1`: 16%. Still for that read-out and setting: next, `COc1ccc([C@@H]2[C@@H](CCCc3ccccc3)C(=O)N2c2ccc(OC)cc2)cc1` [SCH-48461]: 78%; `COc1ccc([C@@H]2[C@H](CCCc3ccccc3)S(=O)(=O)N2c2ccccc2)cc1`: 43%.

`COc1ccc([C@@H]2[C@@H](CCCc3ccccc3)C(=S)N2c2ccc(OC)cc2)cc1` showed a L/CE of 23%. On the same count and under the same terms, next, `COc1ccc([C@@H]2[C@H](CCc3ccccc3)OC(=O)N2c2ccccc2)cc1`: 21%; `COc1ccc([C@@H]2[C@H](CCCc3ccccc3)C(=O)N2c2ccc(OC)cc2)cc1` (racemic): 95%; `COc1ccc([C@@H]2[C@H](CCCCc3ccccc3)CC(=O)N2c2ccc(OC)cc2)cc1`: 30%.

`COc1ccc([C@@H]2[C@H](CCCc3ccccc3)CC(=O)N2c2ccc(OC)cc2)cc1` yielded a L/CE of 43%.

As for `COc1ccc([C@@H]2[C@@H](CCc3ccccc3)OC(=O)N2c2ccccc2)cc1`, the L/CE is on record as 34%. Still for that read-out and setting: for `COc1ccc([C@@H]2[C@@H](CCc3ccccc3)CC(=O)N2c2ccc(OC)cc2)cc1` the value was 24%. As for `COc1ccc([C@@H]2[C@@H](c3ccc4ccccc4c3)CC(=O)N2c2ccc(OC)cc2)cc1`, the L/CE turned out to be 28%.

`COc1ccc([C@@H]2[C@H](c3ccc4ccccc4c3)CC(=O)N2c2ccc(OC)cc2)cc1` gave a L/CE of 21%.

Molecule `COc1ccc([C@@H]2[C@@H](CCc3ccccc3)NC(=O)N2c2ccccc2)cc1` displayed a L/CE of 34%.

The test system of the next test is Cricetinae gen. sp. Nature of the test: Tested for ability to reduce liver cholesterol ester (L/CE) levels in the cholesterol fed hamster model at a dose of 50 mg/kg; NE: No effect. In kind it is functional, organism-based. Details: dose 50 mg/kg. As to conditions: Cricetulus griseus.
`COc1ccc([C@H]2C[C@@H](CCCCc3ccccc3)C(=O)N2c2ccccc2)cc1`: the L/CE entry is “inactive”. Same read-out and setting: next, `COc1ccc([C@@H]2C[C@@H](CCCCc3ccccc3)C(=O)N2c2ccccc2)cc1`: “inactive”.

`COc1ccc([C@H]2CN(c3ccc(OC)cc3)C(=O)[C@@H]2CCCc2ccccc2)cc1`: the L/CE entry was “inactive”. The same measure, in the same setting: for `COc1ccc([C@@H]2C[C@@H](CCCc3ccccc3)C(=O)N2c2ccc(OC)cc2)cc1` the value was “inactive”.
